Data reported in ChEMBL document CHEMBL4184209, “Identification and initial optimization of inhibitors of Clostridium difficile (C. difficile) toxin B (TcdB)” (Bioorg Med Chem Lett, 2018).
Activity calls are given as the source filed them.

Columns and labels:
Bifidobacterium longum = assay: Effect on growth of Bifidobacterium longum at 0.5 to 100 uM incubated for 24 hrs under anaerobic conditions by spectrophotometry; assay type: organism-based
Bacteroides fragilis = assay: Effect on growth of Bacteroides fragilis at 0.5 to 100 uM incubated for 48 hrs under anaerobic conditions by spectrophotometry; assay type: organism-based
[1] = tested on: Limosilactobacillus reuteri; assay: Effect on growth of Lactobacillus reuteri at 0.5 to 100 uM incubated for 24 hrs under anaerobic conditions by spectrophotometry; assay type: organism-based
Clostridioides difficile = assay: Effect on growth of Clostridium difficile at 0.5 to 100 uM incubated for 24 hrs under anaerobic conditions by spectrophotometry; assay type: functional, organism-based
Toxin B [2] = target: T1, Toxin B (Clostridioides difficile, UniProt P18177); assay: Inhibition of C-terminal 6-His tagged recombinant Clostridium difficile toxin B catalytic fragment (Met1 to Leu543 residues) assessed as reduction in glucosyltransferase domain UDP-glucose hydrolysis activity using UDP-glucose and ADP Alexa633 tracer incubated fore 3 hrs by fluorescence polarization assay
T1 sequence (P18177 whole entry, the tested form may be a part): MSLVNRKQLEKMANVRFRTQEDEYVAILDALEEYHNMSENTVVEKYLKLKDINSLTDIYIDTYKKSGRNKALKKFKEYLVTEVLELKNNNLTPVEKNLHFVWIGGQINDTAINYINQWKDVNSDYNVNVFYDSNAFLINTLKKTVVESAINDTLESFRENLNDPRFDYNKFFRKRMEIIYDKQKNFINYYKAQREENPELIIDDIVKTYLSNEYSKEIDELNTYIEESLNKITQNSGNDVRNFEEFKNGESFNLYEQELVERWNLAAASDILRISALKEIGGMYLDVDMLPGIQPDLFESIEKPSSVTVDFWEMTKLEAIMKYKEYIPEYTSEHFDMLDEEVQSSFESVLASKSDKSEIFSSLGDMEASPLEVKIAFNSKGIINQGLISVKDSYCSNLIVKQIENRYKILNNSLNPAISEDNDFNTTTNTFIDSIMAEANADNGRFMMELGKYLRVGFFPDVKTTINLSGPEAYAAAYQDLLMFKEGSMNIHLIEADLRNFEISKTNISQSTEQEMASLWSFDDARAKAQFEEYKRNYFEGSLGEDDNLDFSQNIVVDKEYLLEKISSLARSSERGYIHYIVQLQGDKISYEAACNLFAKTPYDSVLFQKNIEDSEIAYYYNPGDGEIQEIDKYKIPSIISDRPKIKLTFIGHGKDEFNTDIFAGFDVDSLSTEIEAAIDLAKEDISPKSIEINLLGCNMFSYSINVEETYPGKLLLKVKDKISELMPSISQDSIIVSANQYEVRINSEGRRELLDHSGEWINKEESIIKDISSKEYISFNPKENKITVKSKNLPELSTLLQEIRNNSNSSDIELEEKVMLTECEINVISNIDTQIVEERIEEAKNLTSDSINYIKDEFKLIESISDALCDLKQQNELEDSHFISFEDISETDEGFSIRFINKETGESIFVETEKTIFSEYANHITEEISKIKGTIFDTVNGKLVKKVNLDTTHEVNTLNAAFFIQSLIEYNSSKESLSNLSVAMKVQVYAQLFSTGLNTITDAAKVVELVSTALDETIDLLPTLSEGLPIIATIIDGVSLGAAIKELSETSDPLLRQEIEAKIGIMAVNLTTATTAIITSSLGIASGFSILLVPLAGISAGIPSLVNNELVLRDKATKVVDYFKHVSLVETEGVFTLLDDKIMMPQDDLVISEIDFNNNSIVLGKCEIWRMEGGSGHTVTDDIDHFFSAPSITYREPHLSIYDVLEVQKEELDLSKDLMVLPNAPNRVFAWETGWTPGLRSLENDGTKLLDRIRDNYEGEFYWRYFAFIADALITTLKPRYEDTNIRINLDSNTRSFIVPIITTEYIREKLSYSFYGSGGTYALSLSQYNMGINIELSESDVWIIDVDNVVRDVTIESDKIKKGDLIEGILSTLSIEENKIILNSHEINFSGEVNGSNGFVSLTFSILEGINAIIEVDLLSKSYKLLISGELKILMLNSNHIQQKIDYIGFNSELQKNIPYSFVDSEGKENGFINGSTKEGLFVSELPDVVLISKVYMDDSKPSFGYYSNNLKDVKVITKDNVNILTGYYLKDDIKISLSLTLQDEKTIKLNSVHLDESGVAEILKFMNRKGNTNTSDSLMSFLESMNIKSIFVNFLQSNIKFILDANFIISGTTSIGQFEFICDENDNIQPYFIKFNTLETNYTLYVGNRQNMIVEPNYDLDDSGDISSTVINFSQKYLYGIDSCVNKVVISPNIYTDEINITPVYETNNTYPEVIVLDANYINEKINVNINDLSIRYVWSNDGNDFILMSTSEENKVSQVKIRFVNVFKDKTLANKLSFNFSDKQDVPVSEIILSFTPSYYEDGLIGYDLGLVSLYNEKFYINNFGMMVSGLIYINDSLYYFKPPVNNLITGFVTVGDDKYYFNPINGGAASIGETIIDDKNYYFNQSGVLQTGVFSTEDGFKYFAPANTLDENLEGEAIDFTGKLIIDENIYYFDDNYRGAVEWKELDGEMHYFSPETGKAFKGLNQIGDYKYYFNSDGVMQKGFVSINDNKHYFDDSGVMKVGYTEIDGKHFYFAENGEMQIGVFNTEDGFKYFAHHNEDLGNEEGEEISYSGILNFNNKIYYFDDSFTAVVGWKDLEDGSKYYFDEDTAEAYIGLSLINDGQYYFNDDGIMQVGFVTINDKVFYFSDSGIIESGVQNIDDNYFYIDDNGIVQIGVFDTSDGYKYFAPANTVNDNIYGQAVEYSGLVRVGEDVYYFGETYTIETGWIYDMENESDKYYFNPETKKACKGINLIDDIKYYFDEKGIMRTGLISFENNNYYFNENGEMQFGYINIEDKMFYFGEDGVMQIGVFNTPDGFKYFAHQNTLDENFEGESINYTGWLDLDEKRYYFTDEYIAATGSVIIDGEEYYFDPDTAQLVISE

Toxin B [3] = target: T1, Toxin B; assay: Inhibition of Clostridium difficile toxin B […] assessed as reduction in caspase 3/7 activation pre-incubated for 1 hr before TcdB addition by luminescence based assay1; assay type: cell-based
[4] = Stability in mouse liver microsomes assessed as parent compound remaining level incubated for 15 mins; assay type: ADME, microsome; details: read-out: Stability
[5] = Stability in human liver microsomes assessed as parent compound remaining level incubated for 15 mins; assay type: ADME, microsome; details: read-out: Stability

O=C(O)c1ccc(CN2C(=O)c3ccc(Cl)cc3NC(=O)[C@H]2Cc2ccccc2)cc1
Activity (Bifidobacterium longum): Non-Toxic | Activity (Bacteroides fragilis): Non-Toxic | Activity [1]: Non-Toxic | Activity (Clostridioides difficile): inactive | IC50 (Toxin B [2]): 6.3 µM

O=C(Nc1ccccc1)c1ccc(CN2C(=O)c3ccc(Cl)cc3NC(=O)[C@H]2Cc2cccnc2)cc1
Activity (Bifidobacterium longum): Non-Toxic | Activity (Bacteroides fragilis): Non-Toxic | Activity [1]: Non-Toxic | Activity (Clostridioides difficile): inactive | IC50 (Toxin B [2]): 22 µM

O=C(O)c1ccc(CN2C(=O)c3ccc(Cl)cc3NC(=O)[C@H]2Cc2cccc(Cl)c2)cc1
Activity (Bifidobacterium longum): Non-Toxic | Activity (Bacteroides fragilis): Non-Toxic | Activity [1]: Non-Toxic | Activity (Clostridioides difficile): inactive | IC50 (Toxin B [2]): 1.6 µM

O=C(O)c1ccc(CN2C(=O)c3ccc(Cl)cc3NC(=O)[C@H]2Cc2nccs2)cc1
Activity (Bifidobacterium longum): Non-Toxic | Activity (Bacteroides fragilis): Non-Toxic | Activity [1]: Non-Toxic | Activity (Clostridioides difficile): inactive | IC50 (Toxin B [2]): 2.3 µM

CN1C(=O)[C@@H](Cc2cccnc2)N(Cc2ccc(C(=O)O)cc2)C(=O)c2ccc(Cl)cc21
Activity (Bifidobacterium longum): Non-Toxic | Activity (Bacteroides fragilis): Non-Toxic | Activity [1]: Non-Toxic | Activity (Clostridioides difficile): inactive | IC50 (Toxin B [2]): > 80 µM

N#Cc1cccc(C[C@@H]2C(=O)Nc3cc(Cl)ccc3C(=O)N2Cc2ccc(C(=O)O)cc2)c1
Activity (Bifidobacterium longum): Non-Toxic | Activity (Bacteroides fragilis): Non-Toxic | Activity [1]: Non-Toxic | Activity (Clostridioides difficile): inactive | IC50 (Toxin B [2]): 6.2 µM

Cc1cc(NC(=O)c2ccc(CN3C(=O)c4ccc(Cl)cc4NC(=O)[C@H]3Cc3cccnc3)cc2)no1
Activity (Bifidobacterium longum): Non-Toxic | Activity (Bacteroides fragilis): Non-Toxic | IC50 (Toxin B [3]): 19 µM | remaining at 0.25 h [4]: 31% | remaining at 0.25 h [5]: 100% | Activity [1]: Non-Toxic | Activity (Clostridioides difficile): inactive | IC50 (Toxin B [2]): 0.05 µM

O=C(O)c1ccc(CN2C(=O)c3ccc(Cl)cc3NC(=O)[C@H]2CC2CCCCC2)cc1
Activity (Bifidobacterium longum): Non-Toxic | Activity (Bacteroides fragilis): Non-Toxic | Activity [1]: Non-Toxic | Activity (Clostridioides difficile): inactive | IC50 (Toxin B [2]): 84 µM

O=C(O)c1ccc(CN2C(=O)c3ccc(Cl)cc3NC(=O)[C@@H]2Cc2ccccn2)cc1
Activity (Bifidobacterium longum): Non-Toxic | Activity (Bacteroides fragilis): Non-Toxic | Activity [1]: Non-Toxic | Activity (Clostridioides difficile): inactive | IC50 (Toxin B [2]): 0.5 µM

O=C(O)c1ccc(CN2C(=O)c3ccc(Cl)cc3NC(=O)[C@H]2Cc2ccc(Cl)cc2)cc1
Activity (Bifidobacterium longum): Non-Toxic | Activity (Bacteroides fragilis): Non-Toxic | Activity [1]: Non-Toxic | Activity (Clostridioides difficile): inactive | IC50 (Toxin B [2]): 17 µM

COC(=O)c1ccc(CN2C(=O)c3ccc(Cl)cc3NC(=O)[C@H]2Cc2cccnc2)cc1
Activity (Bifidobacterium longum): Non-Toxic | Activity (Bacteroides fragilis): Non-Toxic | Activity [1]: Non-Toxic | Activity (Clostridioides difficile): inactive | IC50 (Toxin B [2]): > 80 µM

Cc1ccc(C[C@@H]2C(=O)Nc3cc(Cl)ccc3C(=O)N2Cc2ccc(C(=O)O)cc2)cc1
Activity (Bifidobacterium longum): Non-Toxic | Activity (Bacteroides fragilis): Non-Toxic | Activity [1]: Non-Toxic | Activity (Clostridioides difficile): inactive | IC50 (Toxin B [2]): 32 µM

O=C(O)c1ccc(CN2C(=O)c3ccccc3NC(=O)[C@H]2Cc2ccc(Cl)c(Cl)c2)cc1
Activity (Bifidobacterium longum): Non-Toxic | Activity (Bacteroides fragilis): Non-Toxic | Activity [1]: Non-Toxic | Activity (Clostridioides difficile): inactive | IC50 (Toxin B [2]): 2.1 µM

O=C(O)c1ccc(CN2C(=O)c3ccc(Cl)cc3NC(=O)[C@@H]2Cc2ccc(O)cc2)cc1
Activity (Bifidobacterium longum): Non-Toxic | Activity (Bacteroides fragilis): Non-Toxic | Activity [1]: Non-Toxic | Activity (Clostridioides difficile): inactive | IC50 (Toxin B [2]): 16 µM

O=C(O)c1ccc(CN2C(=O)c3ccc(Cl)cc3NC(=O)[C@H]2Cc2ccccc2Cl)cc1
Activity (Bifidobacterium longum): Non-Toxic | Activity (Bacteroides fragilis): Non-Toxic | Activity [1]: Non-Toxic | Activity (Clostridioides difficile): inactive | IC50 (Toxin B [2]): 2.3 µM

COc1ccc2c(c1)NC(=O)[C@@H](Cc1cccnc1)N(Cc1ccc(C(=O)O)cc1)C2=O
Activity (Bifidobacterium longum): Non-Toxic | Activity (Bacteroides fragilis): Non-Toxic | Activity [1]: Non-Toxic | Activity (Clostridioides difficile): inactive | IC50 (Toxin B [2]): 2.5 µM

O=C(O)c1ccc(CN2C(=O)c3cccc(Cl)c3NC(=O)[C@H]2Cc2cccnc2)cc1
Activity (Bifidobacterium longum): Non-Toxic | Activity (Bacteroides fragilis): Non-Toxic | Activity [1]: Non-Toxic | Activity (Clostridioides difficile): inactive | IC50 (Toxin B [2]): 69 µM

O=C(O)c1ccc(CN2C(=O)c3ccc(Cl)cc3NC(=O)[C@H]2c2ccccc2)cc1
Activity (Bifidobacterium longum): Non-Toxic | Activity (Bacteroides fragilis): Non-Toxic | Activity [1]: Non-Toxic | Activity (Clostridioides difficile): inactive | IC50 (Toxin B [2]): > 80 µM

C[C@@H]1C(=O)Nc2cc(Cl)ccc2C(=O)N1Cc1ccc(C(=O)O)cc1
Activity (Bifidobacterium longum): Non-Toxic | Activity (Bacteroides fragilis): Non-Toxic | Activity [1]: Non-Toxic | Activity (Clostridioides difficile): inactive | IC50 (Toxin B [2]): 21 µM

O=C(O)c1ccc(CN2C(=O)c3ccccc3NC(=O)[C@H]2Cc2cccnc2)cc1
Activity (Bifidobacterium longum): Non-Toxic | Activity (Bacteroides fragilis): Non-Toxic | Activity [1]: Non-Toxic | Activity (Clostridioides difficile): inactive | IC50 (Toxin B [2]): 46 µM

O=C(O)c1ccc(CN2C(=O)c3ccc(Cl)cc3NC(=O)[C@H]2Cc2ccccn2)cc1
Activity (Bifidobacterium longum): Non-Toxic | Activity (Bacteroides fragilis): Non-Toxic | Activity [1]: Non-Toxic | Activity (Clostridioides difficile): inactive | IC50 (Toxin B [2]): 0.24 µM

O=C(O)c1ccc(CN2C(=O)c3ccc(Cl)cc3NC(=O)[C@H]2CCc2ccccc2)cc1
Activity (Bifidobacterium longum): Non-Toxic | Activity (Bacteroides fragilis): Non-Toxic | Activity [1]: Non-Toxic | Activity (Clostridioides difficile): inactive | IC50 (Toxin B [2]): 23 µM

O=C(O)c1ccc(CN2C(=O)c3ccc(Cl)cc3NC(=O)C2Cc2cnccn2)cc1 (racemic)
Activity (Bifidobacterium longum): Non-Toxic | Activity (Bacteroides fragilis): Non-Toxic | Activity [1]: Non-Toxic | Activity (Clostridioides difficile): inactive | IC50 (Toxin B [2]): 3.1 µM

CC(C)C[C@@H]1C(=O)Nc2cc(Cl)ccc2C(=O)N1Cc1ccc(C(=O)O)cc1
Activity (Bifidobacterium longum): Non-Toxic | Activity (Bacteroides fragilis): Non-Toxic | Activity [1]: Non-Toxic | Activity (Clostridioides difficile): inactive | IC50 (Toxin B [2]): > 80 µM

O=C(Nc1cccnc1)c1ccc(CN2C(=O)c3ccc(Cl)cc3NC(=O)[C@H]2Cc2cccnc2)cc1
Activity (Bifidobacterium longum): Non-Toxic | Activity (Bacteroides fragilis): Non-Toxic | Activity [1]: Non-Toxic | Activity (Clostridioides difficile): inactive | IC50 (Toxin B [2]): > 80 µM

O=C(O)c1ccc(CN2C(=O)c3ccc(Cl)cc3NC(=O)[C@H]2Cc2cccnc2)cc1
Activity (Bifidobacterium longum): Non-Toxic | Activity (Bacteroides fragilis): Non-Toxic | Activity [1]: Non-Toxic | Activity (Clostridioides difficile): inactive | IC50 (Toxin B [2]): 0.77 µM

O=C(O)c1ccc(CN2C(=O)c3cc(Cl)ccc3NC(=O)[C@H]2Cc2cccnc2)cc1
Activity (Bifidobacterium longum): Non-Toxic | Activity (Bacteroides fragilis): Non-Toxic | Activity [1]: Non-Toxic | Activity (Clostridioides difficile): inactive | IC50 (Toxin B [2]): > 80 µM

NC(=O)c1ccc(CN2C(=O)c3ccc(Cl)cc3NC(=O)[C@@H]2Cc2ccc(Cl)c(Cl)c2)cc1
Activity (Bifidobacterium longum): Non-Toxic | Activity (Bacteroides fragilis): Non-Toxic | Activity [1]: Non-Toxic | Activity (Clostridioides difficile): inactive | IC50 (Toxin B [2]): 16 µM

O=C(O)c1ccc(CN2C(=O)c3ccc(F)cc3NC(=O)[C@H]2Cc2cccnc2)cc1
Activity (Bifidobacterium longum): Non-Toxic | Activity (Bacteroides fragilis): Non-Toxic | Activity [1]: Non-Toxic | Activity (Clostridioides difficile): inactive | IC50 (Toxin B [2]): 8.6 µM

O=C(Nc1ccncc1)c1ccc(CN2C(=O)c3ccc(Cl)cc3NC(=O)[C@H]2Cc2cccnc2)cc1
Activity (Bifidobacterium longum): Non-Toxic | Activity (Bacteroides fragilis): Non-Toxic | Activity [1]: Non-Toxic | Activity (Clostridioides difficile): inactive | IC50 (Toxin B [2]): > 80 µM

Cc1cccc(C[C@@H]2C(=O)Nc3cc(Cl)ccc3C(=O)N2Cc2ccc(C(=O)O)cc2)c1
Activity (Bifidobacterium longum): Non-Toxic | Activity (Bacteroides fragilis): Non-Toxic | Activity [1]: Non-Toxic | Activity (Clostridioides difficile): inactive | IC50 (Toxin B [2]): 4.4 µM

O=C(O)c1ccc(CN2C(=O)c3ccc(Cl)cc3NC(=O)[C@H]2Cc2ccccc2F)cc1
Activity (Bifidobacterium longum): Non-Toxic | Activity (Bacteroides fragilis): Non-Toxic | Activity [1]: Non-Toxic | Activity (Clostridioides difficile): inactive | IC50 (Toxin B [2]): 30 µM

Cc1ccccc1C[C@@H]1C(=O)Nc2cc(Cl)ccc2C(=O)N1Cc1ccc(C(=O)O)cc1
Activity (Bifidobacterium longum): Non-Toxic | Activity (Bacteroides fragilis): Non-Toxic | Activity [1]: Non-Toxic | Activity (Clostridioides difficile): inactive | IC50 (Toxin B [2]): 3.9 µM

O=C(O)c1ccc(CN2C(=O)c3ccc(Cl)cc3NC(=O)[C@@H]2Cc2ccc(Cl)c(Cl)c2)cc1
Activity (Bifidobacterium longum): Non-Toxic | Activity (Bacteroides fragilis): Non-Toxic | Activity [1]: Non-Toxic | Activity (Clostridioides difficile): inactive | IC50 (Toxin B [2]): 2.1 µM

Cc1ccc2c(c1)NC(=O)[C@@H](Cc1ccc(Cl)c(Cl)c1)N(Cc1ccc(C(=O)O)cc1)C2=O
Activity (Bifidobacterium longum): Non-Toxic | Activity (Bacteroides fragilis): Non-Toxic | Activity [1]: Non-Toxic | Activity (Clostridioides difficile): inactive | IC50 (Toxin B [2]): 12 µM

O=C(O)c1ccc(CN2C(=O)c3ccc(Cl)cc3NC(=O)[C@H]2Cc2ccncc2)cc1
Activity (Bifidobacterium longum): Non-Toxic | Activity (Bacteroides fragilis): Non-Toxic | Activity [1]: Non-Toxic | Activity (Clostridioides difficile): inactive | IC50 (Toxin B [2]): 18 µM

O=C(O)c1ccc(CN2C(=O)c3ccc(Cl)cc3NC(=O)[C@H]2Cc2ccc(O)cc2)cc1
Activity (Bifidobacterium longum): Non-Toxic | Activity (Bacteroides fragilis): Non-Toxic | Activity [1]: Non-Toxic | Activity (Clostridioides difficile): inactive | IC50 (Toxin B [2]): 2 µM

O=C(Nc1ncccn1)c1ccc(CN2C(=O)c3ccc(Cl)cc3NC(=O)[C@H]2Cc2cccnc2)cc1
Activity (Bifidobacterium longum): Non-Toxic | Activity (Bacteroides fragilis): Non-Toxic | remaining at 0.25 h [4]: 88% | remaining at 0.25 h [5]: 100% | Activity [1]: Non-Toxic | Activity (Clostridioides difficile): inactive | IC50 (Toxin B [2]): 0.018 µM
